# Test results taken from PubChem BioAssay (NCI).
#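 A five-concentration, 48-hour dose response in 96-well plates underlies each endpoint, interpolated linearly between surrounding concentrations. At the GI50, growth is halved. The concentration for full growth arrest is given as TGI.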
# Legend:
# Assay in all cases: NCI anticancer screen, dose series, 48 h
# [1] = system: HCC-2998 colon
# [2] = system: HOP-62 NSCLC
# [3] = system: NCI-H460 lung
# [4] = system: OVCAR-8 ovarian
# [5] = system: HL-60(TB) leukemia
# [6] = system: 786-0 renal
# [7] = system: EKVX NSCLC
# [8] = system: NCI-H522 lung
# [9] = system: HT29 colon
# [10] = system: NCI-H226 lung
Structure (SMILES),TGI [1] [µM],TGI [2] [µM],TGI [3] [µM],TGI [4] [µM],TGI [5] [µM],TGI [6] [µM],TGI [7] [µM],TGI [8] [µM],GI50 [2] [µM],GI50 [3] [µM],GI50 [4] [µM],GI50 [5] [µM],GI50 [9] [µM],TGI [9] [µM],GI50 [6] [µM],GI50 [7] [µM],GI50 [10] [µM],TGI [10] [µM],GI50 [8] [µM],GI50 [1] [µM]
CC(=O)Nc1c(Nc2ccccc2)[nH]c(C)nc1=S,> 100,> 100,> 100,> 100,> 100,> 100,> 100,> 100,,,,,,,,,,,,
C[C@]12CC[C@H]3[C@@H](CC=C4C[C@@H](N5CCCC5)CC[C@@]43C)[C@@H]1C/C(=C\c1cccc(OCCN3CCOCC3)c1)[C@@H]2O,,9.83,> 100,21.7,> 100,3.62,> 100,29.7,2.76,3.28,3.74,4.32,0.532,15.7,1.64,8.02,22,53.8,8.21,
OC(COC(c1ccccc1)(c1ccccc1)c1ccccc1)C(O)CC1SCCS1 (configuration not stated),,30.7,,57.7,> 100,39.7,30.7,,,,,,,34.3,,,,35.3,,
CCOC(=O)c1cc2c(cc1Cl)SC(=Nc1ccccc1)N(S(=O)(=O)c1ccc(Cl)cc1)S2(=O)=O,27.9,32.6,46.7,59.6,,27.5,31.8,42.8,16,18.8,22.1,,19.4,> 100,13.5,16.6,6.03,28.2,15.5,13.5
COC(=O)C1=C(O)[C@H](C(=O)OC)C2(O)C(C(=O)OC)[C@H](c3ccc(OC(=O)C(C)c4ccc(CC(C)C)cc4)cc3)C[C@@H]1[C@@H]2C(=O)OC (some centres not stated),15.8,> 50,> 50,> 50,,> 50,6.7,> 50,31.7,13.2,13.1,,,,20.4,0.97,,,14.3,7.95
CC(=O)c1c2c(cc3c1CC1(C3)Cc3cc4c(c(C(C)=O)c3C1)CCC4)CCC2,> 100,> 100,> 100,> 100,> 100,> 100,,> 100,,,,,,> 100,,,,,,
CN(C)CCNC(=O)c1cccc2cc3c(Cl)cccc3nc12,3.66,2.55,,> 20.3,,> 20.2,9.58,> 100,,,,,,6.94,,,,2.73,,
Cc1cc2c(cc1Cl)S/C(=C/C(=O)O)C(Nc1ccc3ncsc3c1)=NS2(=O)=O,,> 42.9,> 100,> 100,> 100,22.1,> 52.8,> 67.6,17,16.2,32.7,9.16,19.4,> 100,8.57,> 16.9,25.3,> 65.3,13,
CCCCCCCCCCCCCC[N+](C)(C)CCCCCCCCCCCCCC,5.28,,,,4.89,4.92,,5.17,,,,2.07,,,2.02,,,,1.93,2.26
CC1=C(c2ccccc2)C(O)(c2ccccc2)C(C)C1=O (configuration not stated),,> 100,> 100,> 100,87.4,> 100,> 100,,11.6,25.1,48,16.6,10.5,> 100,18.9,35.1,33.4,> 100,,
Cc1csc2[n+]1-c1ccccc1N(C(=O)Nc1ccccc1)C(C)C2 (configuration not stated),,> 100,> 100,> 100,,35.8,> 100,> 100,41.9,81,> 100,,36.6,> 100,17.7,> 100,> 100,> 100,61.9,
O=C(O)[C@H](NS(=O)(=O)c1ccc(F)cc1)c1ccccc1,> 100,> 100,> 100,> 100,,> 100,> 100,> 100,,,,,,> 100,,,,> 100,,
CCOC(=O)C(=O)CC1=Nc2ccccc2SC(c2cccc(C)c2)C1 (configuration not stated),31.3,49.4,36.4,25.1,,32.4,40.4,32.8,,,,,,29.8,,,,32.5,,
